How the values were obtained:
DIPGX29 [1] = H3.3 K27M diffuse intrinsic pontine glioma line; test: maximal growth inhibition (yFin) relative to DMSO / staurosporine; higher = more efficacious
Summary of the method: (§1)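 EC50 and maximal response (yFin) were derived from the lowest-AICc fit, either three- or four-parameter log-logistic. The data were pooled CellTiter-Glo luminescence values, log2-transformed and normalised per plate to % activity between negative (solvent) and positive controls. Patient-derived pHGG/DIPG cell lines and astrocyte controls on 1% Geltrex-coated 384-well plates received a 10-point threefold dilution series (mean top concentration 35 μM) by pin tool, in triplicate, for 7 days (iAstro 3 days) at 37 °C, 5% CO2.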

HGGX39 [2] = paediatric high-grade glioma line; test: as above
Summary of the method: as §1

DIPGX37 [3] = H3.3 K27M diffuse intrinsic pontine glioma line; test: as above
Summary of the method: as §1

HGGX6 [4] = H3.3 G34R paediatric high-grade glioma line; test: as above
Summary of the method: as §1

DIPGX29 [5] = test: area under dose-response curve of % growth inhibition (log2 RLU vs DMSO / staurosporine), 1e-11 to 1e-4 M (% x log10 M); higher = more growth inhibition
Summary of the method: (§2)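 Cells were exposed in triplicate for 7 days (iAstro: 3 days) at 37 °C, 5% CO2 to a 10-point series of threefold dilutions with a mean top concentration of 35 μM. These were patient-derived pHGG/DIPG lines plus astrocytes, grown on 384-well plates coated with 1% Geltrex. Readout was CellTiter-Glo luminescence, log2-transformed and set per plate to % activity between solvent and positive controls, from which area under the curve was derived by trapezoid rule on a log-logistic fit or, failing that, a smoothing spline.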

HGGX39 [6] = test: as above
Summary of the method: as §2

DIPGX37 [7] = test: as above
Summary of the method: as §2

HGGX6 [8] = test: as above
Summary of the method: as §2

DIPGX29 [9] = test: EC50 (inflection of fitted growth-inhibition curve) (log10 M)
Summary of the method: as §1

HGGX39 [10] = test: as above
Summary of the method: as §1

DIPGX37 [11] = test: as above
Summary of the method: as §1

HGGX6 [12] = test: as above
Summary of the method: as §1

Row | SMILES | maximal growth inhibition (DIPGX29 [1]) [%] | maximal growth inhibition (HGGX39 [2]) [%] | maximal growth inhibition (DIPGX37 [3]) [%] | maximal growth inhibition (HGGX6 [4]) [%] | area under dose-response curve (DIPGX29 [5]) | area under dose-response curve (HGGX39 [6]) | area under dose-response curve (DIPGX37 [7]) | area under dose-response curve (HGGX6 [8]) | EC50 (log10 M) (DIPGX29 [9]) | EC50 (log10 M) (HGGX39 [10]) | EC50 (log10 M) (DIPGX37 [11]) | EC50 (log10 M) (HGGX6 [12])
1 | CCCCC(CC)CNC(=N)NC(=N)NCCCCCCNC(=N)NC(=N)NCC(CC)CCCC (stereo unspecified) [ALEXIDINE] | 63.3 | 80.3 | 78.2 | 73.3 | 130 | 126 | 126 | 105 | -6.06 | -5.64 | -5.67 | -5.48
2 | O=C1COc2c(CCNCCN(C(=O)CCNCCc3ccc(Cl)c(Cl)c3)C3CCCCC3)ccc(O)c2N1 [AZ505] | 82.3 | 61.1 | 60.3 | 74.2 | 70.9 | 49.1 | 33.8 | 61.6 | -4.86 | -4.82 | -4.56 | -4.83
3 | CCN(CC)CCOCCOC(=O)C(CC)(CC)c1ccccc1 [OXELADIN] | 25.1 | 64.4 | 34.4 | 28.2 | 19.7 | 59.1 | 35.4 | 28.1 | -4.79 | -4.84 | -4.88 | -4.83
4 | CN(C(=O)CN(CCO)CC(=O)N(C)C(C)(C)Cc1ccccc1)C(C)(C)Cc1ccccc1 [OXETHAZAINE] | 77.7 | 88.2 | 82.1 | 47.3 | 63 | 71.1 | 65.5 | 38.4 | -4.81 | -4.81 | -4.8 | -4.82
5 | COc1cc(Nc2c(C#N)cnc3cc(OCCCN4CCN(C)CC4)c(OC)cc23)c(Cl)cc1Cl [BOSUTINIB] | 74.1 | 79.3 | 71.8 | 75.7 | 75.5 | 71.8 | 80.4 | 74.3 | -4.78 | -4.74 | -4.76 | -4.75
6 | Clc1ccc(CCC(Cn2ccnc2)Sc2c(Cl)cccc2Cl)cc1 (stereo unspecified) [BUTOCONAZOLE] | 57 | 85.9 | 70.3 | 47.6 | 59.7 | 80.5 | 69.4 | 37.8 | -4.86 | -4.87 | -4.84 | -4.79
7 | O=C1NCCc2[nH]c(-c3ccncc3)cc21 | 67.8 | 71.2 | 58.9 | 65.9 | 110 | 98.2 | 111 | 124 | -5.62 | -5.41 | -5.9 | -5.81
8 | CNC(=O)c1cc(Oc2ccc(NC(=O)Nc3ccc(Cl)c(C(F)(F)F)c3)cc2)ccn1 [SORAFENIB] | 57.2 | 80.4 | 79 | 75.3 | 46.9 | 77 | 104 | 77.2 | -4.82 | -4.96 | -4.9 | -4.9
9 | Cc1ccc(NC2=CC(=O)c3sc(C)nc3C2=O)cc1 [RYUVIDINE] | 97.5 | 98.1 | 110 | 90.5 | 207 | 169 | 187 | 197 | -6.12 | -5.76 | -5.7 | -6.18
10 | CCN(CC)CCOc1ccc(C(=C(Cl)c2ccccc2)c2ccccc2)cc1 [CLOMIPHENE] | 77 | 81.6 | 84.8 | 71.4 | 71.2 | 139 | 102 | 80.2 | -4.92 | -5.71 | -5.2 | -5.11
11 | CN(C)c1ccc(C(=C2C=CC(=[N+](C)C)C=C2)c2ccc(N(C)C)cc2)cc1 [GENTIAN VIOLET] | 128 | 121 | 124 | 112 | 158 | 164 | 152 | 133 | -5.15 | -4.97 | -5.13 | -5.16
12 | CN1CCN(CCCN2c3ccccc3Sc3ccc(C(F)(F)F)cc32)CC1 [TRIFLUOPERAZINE] | 82.9 | 90.3 | 87.2 | 80.2 | 74.2 | 87.4 | 76.8 | 62.3 | -4.89 | -4.86 | -4.88 | -4.78
13 | OCCN1CCN(CCCN2c3ccccc3Sc3ccc(C(F)(F)F)cc32)CC1 [FLUFENAZINE] | 61.6 | 65.9 | 65.2 | 63.5 | 45.7 | 64 | 59.8 | 67.4 | -4.74 | -4.77 | -4.74 | -4.76
14 | Clc1ccc(COC(Cn2ccnc2)c2ccc(Cl)cc2Cl)c(Cl)c1 (stereo unspecified) [MICONAZOLE] | 45.9 | 42.1 | 61.9 | 41.5 | 46.5 | 39.2 | 48.6 | 35.5 | -4.89 | -4.94 | -4.79 | -4.87
15 | CC[C@@]1(O)C[C@H](O[C@H]2C[C@H](N(C)C)[C@H](O[C@H]3C[C@H](O)[C@H](O[C@H]4CCC(=O)[C@H](C)O4)[C@H](C)O3)[C@H](C)O2)c2c(cc3c(c2O)C(=O)c2c(O)cccc2C3=O)[C@H]1C(=O)OC [ACLARUBICIN] | 58.7 | 65.6 | 62.1 | 62.1 | 96.6 | 118 | 173 | 111 | -5.38 | -5.35 | -6.79 | -5.33
16 | CO[C@@]12[C@H](COC(N)=O)C3=C(C(=O)C(C)=C(N)C3=O)N1C[C@@H]1N[C@@H]12 [MITOMYCIN C] | 62.3 | 69.7 | 73 | 66.2 | 78 | 91.5 | 95.2 | 75.4 | -4.78 | -4.78 | -4.87 | -4.76
17 | CCOC(=O)C1=C(C)NC(C)=C(C(=O)OCC)C1c1ccccc1/C=C/C(=O)OC(C)(C)C [LACIDIPINE] | 87.2 | 90.8 | 91.1 | 74.3 | 72.8 | 76.3 | 75.3 | 63.4 | -4.84 | -4.84 | -4.83 | -4.86
18 | Nc1c2ccccc2nc2ccccc12 [9-AMINOACRIDINE] | 71 | 89.5 | 85.8 | 80.2 | 59.1 | 74 | 70.3 | 65.1 | -4.84 | -4.83 | -4.83 | -4.82
19 | O=C(N/N=C/c1ccc([N+](=O)[O-])o1)c1ccc(O)cc1 [NIFUROXAZIDE] | 81.1 | 49.3 | 81.6 | 74.2 | 73.5 | 39.4 | 78.2 | 56.6 | -4.78 | -4.81 | -4.75 | -4.77
20 | Nc1nc2n[nH]nc2c(=O)[nH]1 [AZAGUANINE-8] | 38.3 | 54.2 | 53.8 | 25.9 | 45 | 74.2 | 58.7 | 31.2 | -5.14 | -5.31 | -5.07 | -5.25
21 | CC1=C(C(=O)OC(C)C)C(c2cccc([N+](=O)[O-])c2)C(C(=O)OC2CN(C(c3ccccc3)c3ccccc3)C2)=C(N)N1 (stereo unspecified) [AZELNIDIPINE] | 81.9 | 99.9 | 86.1 | 91.3 | 74.8 | 93.9 | 83.2 | 80.8 | -4.91 | -4.94 | -4.91 | -4.89
22 | O=C(c1ccc(OCCN2CCCCC2)cc1)c1c(-c2ccc(O)cc2)sc2cc(O)ccc12 [RALOXIFENE] | 68.3 | 73.2 | 73.5 | 73.2 | 63.5 | 67.7 | 68.2 | 64.5 | -4.93 | -4.93 | -4.93 | -4.88
23 | Cc1nc(Nc2n[nH]c3c2CN(C(=O)N[C@H](CN(C)C)c2ccccc2)C3(C)C)c2sccc2n1 | 77.2 | 79.6 | 80.1 | 75.5 | 150 | 120 | 177 | 174 | -5.45 | -5.22 | -5.56 | -5.66
24 | COc1cc(C(=O)N2CC[C@@H](O)[C@@H](N)C2)cc2nc(-c3cc4ccccc4n3CC3CC3)n(C)c12 [GSK-484] | 50.1 | 20.9 | 64 | 45.4 | 54.6 | 20.6 | 67.7 | 48.9 | -4.94 | -4.99 | -4.89 | -4.98
25 | CC(C)(C)c1cc(C(C)(C)C)c(NC(=O)c2c[nH]c3ccccc3c2=O)cc1O [IVACAFTOR] | 90.9 | 97.1 | 97 | 91 | 90.3 | 101 | 99.3 | 91.8 | -4.99 | -5.04 | -4.98 | -5.01
26 | CCCCCCCCOc1ccccc1C(=O)Nc1ccc(C(=O)OCC[N+](C)(CC)CC)cc1 [OTILONIUM] | 22.4 | 77.5 | 26.4 | 69.5 | 16.8 | 74.2 | 22.7 | 61.2 | -4.75 | -4.96 | -4.86 | -4.88
27 | COc1cc([C@@H]2c3cc4c(cc3[C@@H](O[C@@H]3O[C@@H]5CO[C@@H](c6cccs6)O[C@H]5[C@H](O)[C@H]3O)[C@H]3COC(=O)[C@H]23)OCO4)cc(OC)c1O [TENIPOSIDE] | 33.5 | 37.6 | 50.7 | 31.2 | 63.2 | 75.2 | 81.2 | 42.9 | -6.01 | -5.94 | -5.43 | -5.36
28 | O=C1[C@H](Cc2ccc(O)cc2)N2C(=O)CCN(C(=O)NCc3ccccc3)[C@H]2CN1Cc1cccc2ccccc12 [ICG001] | 21.3 | 32.6 | 33.4 | 31.8 | 29.3 | 52.2 | 51.9 | 41.9 | -5.37 | -5.67 | -5.54 | -5.14

Source: the supplement of paper PMC8253809
